Experimental data reported in US8119589B2, “Modulation of CD4+ T cell responses by a tick saliva protein, Salp15 and polypeptides derived therefrom” (University of North Carolina at Charlotte, priority 2004, dated 2012).

How the values were obtained:
[1] = test system: fusion of HL2/3 cells expressing HIV envelope proteins with HeLa-CD4 cells; assay: gp120-CD4-mediated cell fusion by luciferase assay (HeLa-CD4 + HL2/3 cells); assay type: cell-based; settings: 10 and 50 ug/ml Salp15; 48 hours
Protocol: 106 HeLa-CD4 cells, clone 1022 (NIH AIDS Research & Reference Reagent Program, Germantown, Md., U.S.A.) were plated in a 6-well plate and transfected with the plasmid Blue 3′ LTR-luciferase (NIH AIDS Research & Reference Reagent Program) using the lipofectamin method (Invitrogen).
After 24 hours, the cells were trypsinized and mixed with HL2/3 cells that express HIV envelope proteins (NIH AIDS Research & Reference Reagent Program), encoding Gag, Nef, Rev, Tat and Env proteins from HIV (0.2×106 HeLa-CD4+0.2×106 HL2/3) in a 24-well plate at a final volume of 500 uL. The cells were incubated in the presence of 10 and 50 ug/ml of Salp15. The positive control was anti-CD4 Ab and the negative control was anti-CD3.
The cells were harvested after 48 hours, washed with PBS and lysed with 100 uL of Passive Lysis buffer (Promega) per well, for 15 min at RT. The lysates were transferred to Eppendorf tubes, spun at 10,000×g and assessed for Luciferase activity and protein content by the Bradford assay (BioRad). Luciferase activity is an indicator of cell fusion mediated by the interaction of HIV envelope proteins on HL2/3 cells and CD4 on HeLa-CD4 cells.

sCD4 = molecular target: T1, sCD4 (Homo sapiens, UniProt P01730); assay: Microtiter binding of sCD4-HRP to plate-bound Salp15 and synthetic peptides; settings: plate-bound Salp15 pre-treated with 10 mM DTT
T1 construct: the extracellular four domains of CD4 (sCD4); purchased Research Diagnostics Inc., Flanders, N.J., U.S.A
Protocol: Purified sCD4 was coated overnight at 4° C. at the indicated concentrations in 0.1M sodium carbonate buffer (pH 9.5) in 96 well plates. Equimolar amounts of lysozyme were used as a non-specific control. The wells were washed, blocked with 10% FCS/PBS for 1 hr at R.T., and incubated with Salp15 (0.4 μM) for 2 hr at 37° C. Salp15 binding was detected by incubation with horseradish peroxidase (HRP)-conjugated anti-His antibody for 1 hr followed by microwell peroxidase substrate (KPL). The reaction was stopped by adding TMB stop solution (KPL). Chemically synthesized overlapping peptides of Salp15 were purchased from GenScript Corporation (Piscataway, N.J., U.S.A). To study the binding of Salp15 and peptides to sCD4, Salp15 (5 μg) and different peptides (0.5 μg) were coated. The wells were washed and blocked prior to incubation with sCD4-HRP (Research Diagnostics Inc., Flanders, N.J., U.S.A.). For competition assays, indicated concentrations of Salp15 or P11 were added to sCD4-HRP and incubated with plate bound P11 (0.1 μg). To estimate the effect of dithiothreitol (DTT) treatment of Salp15 on binding to sCD4, 0.5 μM Salp15 was treated with 10 mM DTT overnight and immobilized onto microtiter plate followed by blocking and incubation with sCD4-HRP.
Dissociation constants were determined by non-linear curve fit. The results are expressed as the mean±S.E. of 3 to 5 individual experiments.

Jurkat cells = assay: Lipid raft redistribution (CTB594 staining) in activated Jurkat cells; assay type: cell-based, human; settings: Salp15 treatment prior to anti-CD3/CD28 stimulation
Protocol: Naïve CD4+ T cells from C3H/HeN, Balb/c, and B10.BR mice were purified as previously described (Anguita et al., 2002). CD4+ T cells were preincubated in Click's modified Bruff's Medium (Sigma Chemical Co., St. Louis, Mo., U.S.A.) for 10 minutes at 37° C. with and without Salp15 (50 μg/mL) and stimulated for 20 min or the indicated times at 37° C. with 10 μg/mL of anti-CD3ε, 1 μg/mL of anti-CD28, and 10 μg/mL of anti-armenian and syrian hamster IgG (BD Biosciences Pharmingen, San Jose, Calif., U.S.A.). Jurkat (E6-1) cells were stimulated using 5 μg/mL of OKT3 mAb (eBioscience, San Diego, Calif., U.S.A.) and 1 μg/mL of anti-human CD28 cross linked with 5 μg/mL anti-mouse IgG for the indicated times.
For the visualization of lipid rafts, phospho-tyrosine, and cytoskeleton reorganization, CD4^+, CD8^+ or Jurkat cells were cytospun for 10 minutes at 1000 RPM onto positively charged microslides (Fisher Scientific, Hampton, N.H., U.S.A.). The cells were fixed with 3.7% paraformaldehyde (Sigma Chemical Co.) for 15 minutes and stained with CTB594 (Molecular Probes, Eugene, Oreg., U.S.A.), AlexaFluor488 labeled phalloidin (Molecular Probes) or (1:50) biotin-conjugated anti-p-Tyr (PY99) followed by Streptavidin-AlexaFluor594 (1:100, Molecular Probes). […]

[2] = test system: CD4+ T cells from DO11.10 transgenic mice; assay: IL-2 production by DO11.10 transgenic CD4+ T cells activated with ovalbumin and APCs; assay type: cell-based, mouse; settings: 0.5, 5.0 and 50 μg/mL Salp15; ovalbumin; 72 hrs
Protocol: T-cells from CD4-deficient and B6 mice (The Jackson Laboratory, Bar Harbor, Me., U.S.A.) were purified by negative selection and activated for 72 hrs using 5 μg/ml of plate bound anti-CD3 and 1 μg/ml of anti-CD28 in the presence or absence of 50 μg/mL of Salp15. DO11.10 transgenic mouse (The Jackson Laboratory) CD4^+ T cells were purified by negative selection as before and incubated in the presence of 106/mL of syngeneic mitomycin C-treated (50 μg/ml for 40 min at 37° C.) antigen presenting cells (APCs) with 10 μg/mL of ovalbumin in the presence of 0.5, 5.0 and 50 μg/mL of Salp15 for 72 hrs. The supernatants were then collected and IL-2 measured by capture ELISA following the manufacturer's instruction (BD Biosciences Pharmingen).

Salp15: secreted salivary protein from Ixodes scapularis, SEQ ID NO: 2; recombinant His-tagged, produced in Drosophila S2 cells
Reduction in cell fusion (luciferase activity) [1]: concentration dependent reduction | CD4 binding after DTT pre-treatment compared to control Salp15 (sCD4): equivalent binding levels | Lipid raft clustering (Jurkat cells): reduced | Inhibition of IL-2 production [2]: dose dependent manner
